Laboratory results published in the NIST ThermoML archive (doi:10.1016/j.fluid.2011.01.007).
Numbers after ± are expanded uncertainties.

Key:
[1] = 298.15 K; 101.33 kPa; Liquid; Vibrating tube method
[2] = refractive index (Na D-line) (dimensionless); conditions: 298.15 K; 101.33 kPa; Liquid; Standard Abbe refractometry
[3] = refractive index (Na D-line) (dimensionless); xn = mol fraction of the nth substance listed; conditions: 298.15 K, 101 kPa, Liquid, Standard Abbe refractometry
[4] = xn = mol fraction of the nth substance listed; conditions: 298.15 K, 101 kPa, Liquid, Vibrating tube method

For `c1ccccc1` [benzene], which mass density [1] is on record?
The mass density was 873.57 ± 0.43 kg/m3.

And the refractive index [2]?
Its refractive index is 1.49764 ± 0.00037.

With `COC(=O)OC` [dimethyl carbonate] as the compound, how does the mass density [1] read?
Its mass density is 1063.04 ± 0.51 kg/m3.

And the refractive index [2]?
The refractive index was 1.36654 ± 0.00033.

For `COC(=O)OC` [dimethyl carbonate] + Cc1ccccc1, which refractive index ([3]; x1 = 0.0496) is on record?
Its refractive index is 1.4883 ± 0.0004.

What about the refractive index ([3]; x1 = 0.0998) of the same compound?
The refractive index was 1.4827 ± 0.0004.

What about the refractive index ([3]; x1 = 0.2001) of the same compound?
The refractive index was 1.4715 ± 0.0004.

What about the refractive index ([3]; x1 = 0.3003) of the same compound?
Its refractive index is 1.4597 ± 0.0004.

And the refractive index ([3]; x1 = 0.3998)?
Its refractive index is 1.4475 ± 0.0004.

And the refractive index ([3]; x1 = 0.5002)?
Its refractive index is 1.4352 ± 0.0004.

And the refractive index ([3]; x1 = 0.5999)?
Its refractive index is 1.4224 ± 0.0004.

And the refractive index ([3]; x1 = 0.6999)?
The refractive index was 1.4091 ± 0.0004.

And the refractive index ([3]; x1 = 0.7998)?
The refractive index was 1.3954 ± 0.0003.

And the refractive index ([3]; x1 = 0.8988)?
Its refractive index is 1.3814 ± 0.0003.

And the refractive index ([3]; x1 = 0.9487)?
The refractive index was 1.3741 ± 0.0003.

And the mass density ([4]; x1 = 0.0496)?
The mass density was 869.6 ± 0.1 kg/m3.

What about the mass density ([4]; x1 = 0.0998) of the same compound?
Its mass density is 877.39 ± 0.1 kg/m3.

And the mass density ([4]; x1 = 0.2001)?
The mass density was 893.69 ± 0.09 kg/m3.

What about the mass density ([4]; x1 = 0.3003) of the same compound?
Its mass density is 910.85 ± 0.09 kg/m3.

And the mass density ([4]; x1 = 0.3998)?
The mass density was 928.88 ± 0.08 kg/m3.

And the mass density ([4]; x1 = 0.5002)?
The mass density was 948 ± 0.08 kg/m3.

What about the mass density ([4]; x1 = 0.5999) of the same compound?
Its mass density is 968.16 ± 0.08 kg/m3.

What about the mass density ([4]; x1 = 0.6999) of the same compound?
Its mass density is 989.62 ± 0.07 kg/m3.

And the mass density ([4]; x1 = 0.7998)?
Its mass density is 1012.35 ± 0.08 kg/m3.

And the mass density ([4]; x1 = 0.8988)?
The mass density was 1036.61 ± 0.08 kg/m3.

What about the mass density ([4]; x1 = 0.9487) of the same compound?
Its mass density is 1049.29 ± 0.09 kg/m3.

Which refractive index ([3]; x1 = 0.0518) does the source give for `COC(=O)OC` [dimethyl carbonate] + c1ccccc1 here?
The refractive index was 1.4902 ± 0.0004.

What about the refractive index ([3]; x1 = 0.0988) of the same compound?
The refractive index was 1.4836 ± 0.0004.

What about the refractive index ([3]; x1 = 0.1995) of the same compound?
Its refractive index is 1.4699 ± 0.0004.

And the refractive index ([3]; x1 = 0.2994)?
The refractive index was 1.4565 ± 0.0004.

And the refractive index ([3]; x1 = 0.401)?
The refractive index was 1.4431 ± 0.0004.

What about the refractive index ([3]; x1 = 0.5002) of the same compound?
The refractive index was 1.4301 ± 0.0004.

What about the refractive index ([3]; x1 = 0.6003) of the same compound?
The refractive index was 1.417 ± 0.0004.

And the refractive index ([3]; x1 = 0.699)?
Its refractive index is 1.4044 ± 0.0004.

What about the refractive index ([3]; x1 = 0.7981) of the same compound?
Its refractive index is 1.3918 ± 0.0003.

What about the refractive index ([3]; x1 = 0.9) of the same compound?
Its refractive index is 1.3789 ± 0.0003.

What about the refractive index ([3]; x1 = 0.9497) of the same compound?
The refractive index was 1.3727 ± 0.0003.

And the mass density ([4]; x1 = 0.0518)?
The mass density was 882.09 ± 0.1 kg/m3.

What about the mass density ([4]; x1 = 0.0988) of the same compound?
The mass density was 889.99 ± 0.09 kg/m3.

What about the mass density ([4]; x1 = 0.1995) of the same compound?
The mass density was 907.42 ± 0.09 kg/m3.

What about the mass density ([4]; x1 = 0.2994) of the same compound?
The mass density was 925.15 ± 0.08 kg/m3.

What about the mass density ([4]; x1 = 0.401) of the same compound?
The mass density was 943.6 ± 0.08 kg/m3.

What about the mass density ([4]; x1 = 0.5002) of the same compound?
Its mass density is 962.07 ± 0.08 kg/m3.

And the mass density ([4]; x1 = 0.6003)?
The mass density was 981.15 ± 0.07 kg/m3.

And the mass density ([4]; x1 = 0.699)?
The mass density was 1000.51 ± 0.07 kg/m3.

And the mass density ([4]; x1 = 0.7981)?
The mass density was 1020.48 ± 0.08 kg/m3.

What about the mass density ([4]; x1 = 0.9) of the same compound?
The mass density was 1041.49 ± 0.08 kg/m3.

And the mass density ([4]; x1 = 0.9497)?
Its mass density is 1052 ± 0.09 kg/m3.

For `CCO` [ethanol], which mass density [1] is on record?
Its mass density is 785.33 ± 0.39 kg/m3.

And the refractive index [2]?
The refractive index was 1.35928 ± 0.00033.

Which mass density [1] does the source give for `Cc1ccccc1` [toluene] here?
Its mass density is 862.19 ± 0.42 kg/m3.

And the refractive index [2]?
Its refractive index is 1.49397 ± 0.00037.
